The source of these data is US8609655B2, “Calcimimetic compound for use in the treatment of epithelial injury” (Amgen Inc., priority 2008, dated 2013).

For one data set, the system named is colonic crypts. Kind of data set: Ischemic injury (100% N2) and intracellular calcium in colonic crypts. Type of data set: cell-based. The following applies: 5 min prepulse with 100 nM compound A; rat colonic crypts.
The subject of the next data set is isolated ileal villi. The experiment in a line: Ischemic injury (100% N2) and intracellular calcium (FLUO-4) in isolated ileal villi. The following applies: 5 min exposure to 100 nM compound A; rat ileal villi; without calcimimetic sustained increase greater than 200% of initial value. In kind it is cell-based. The method, then: Male (Casr^+/+;Gcm2^−/−) or CaSR knockout (Casr^−/−;Gcm2^−/−) mice weighing 22-27 grams (upper panel) or male Sprague-Dawley rats weighing 220-275 grams (lower panel) were allowed free access to water and food prior to experimentation. The animals were exposed to an overdose of isofluorane and the ileum was removed. The ileum was then cut into 4 cm long sections and each section was placed in EDTA (20 mM) to isolate individual villi for 20 minutes at 37° C. After this digestion period the villi were placed in a HEPES-Ringer Solution that was bubbled with 100% O2 and were kept in this solution at 4° C. until use. All mice were generated at Yale University from a breeding colony. Male Sprague-Dawley rats were purchased from Charles River Laboratories Inc. (Wilmington, Mass.). […]
Following isolation individual villi were placed on coverslips and loaded with the calcium indicator dye FLUO4-AM (10 μM) (Invitrogen, Oregon USA) for 15 minutes. […] Images were recorded for 20-30 minutes using DIC optics at 60× Magnification with a Cooled CCD camera and Metamorph Image acquisition and analysis software.
The increase in intracellular Ca^2+ is plotted as arbitrary fluorescent units (AFU) with higher numbers of AFU representing an increase in intracellular Ca^2+. The data for each villi with a minimum of 7 cells per villi were then pooled and recorded. […]
(Calcium assays in cells follow changes in intracellular calcium, usually with a dye or a luminescent sensor.)

A further data set concerns ileal villi. The experiment in a line: Ischemic injury and Trypan Blue exclusion in ileal villi. The following applies: 5 min of 100 nM compound A; 30 min 100% N2; without calcimimetic greater than 60% uptake. Type of data set: cell-based, rat. The method, then:
Individual villi were transferred to the stage of an inverted microscope where they were perfused with 37° C. HEPES Ringer solution that was bubbled with 100% O2. After the 5 minute equilibration period villi were exposed to a HEPES Ringer solution that had been bubbled with 100% N2. In one series Trypan Blue a non membrane permeant dye used for assessment of membrane integrity was added to the bath (0.1 mM Trypan Blue concentration dissolved directly into the bath solution, either 100% O2 or 100% N2). Images were then recorded at sequential time points using DIC optics at 60× Magnification using a Cooled CCD camera and Metafluor Image acquisition and analysis software. Final data was acquired at 30 min from start of perfusion for all groups. The number of Trypan blue positive cells were counted and a number recorded for each villi under each condition. After 30 minutes of exposure to each experimental solution the number of Trypan Blue positive cells was recorded from a blinded observer. The final number of positive cells for each villi was recorded. The data for each villi with a minimum of 7 cells per villi were then pooled and recorded. A numeric mean was then given for the summation of all the cellular data from each villi and from each animal. For the studies presented there were 7 cells per villi, 5 villi per animal and 5 animals in each group. […]

Another data set has as its system serum total calcium. The experiment in a line: Serum total calcium in cutaneous wound study. The following applies: Compound B 3 mg/kg daily, female balb/c mice; vehicle 10.2-10.9 mg/dL. In kind it is in vivo, mouse.
Data set [1] relates to wound injury RNA biomarkers (wound tissue). Kind of data set: Wound injury RNA biomarkers by quantitative PCR in full-thickness cutaneous wound injury model. The following applies: 3 mg/kg, drug over vehicle, n=5. In kind it is in vivo, mouse. The method, then:
See Zoog S J et al. Cytometry A. (2009) March; 75(3): 189-98. The impact of calcimimetic treatment on gene mRNA biomarkers was assessed by quantitative PCR. For wound injury RNA biomarker exploration, female balb/c mice were randomly divided and treated with Compound B (3 mg/kg, n=5) or vehicle (20% Captisol in water, n=5) the day before cutaneous wounding and each subsequent day after until the termination of the studies. All mice received a 3 mm diameter full-thickness punch wound on day zero. On day 1 and day 3 post-injury, a 6 mm diameter skin biopsy was made over the original 3 mm wound and the wound tissue collected for RNA analysis. RNA was isolated using the Trizol reagent (Invitrogen) following manufacturer's instruction. 10 ng of total RNA was added to a single well at the final volume of 10 ul in 1×ABI (Applied Biosystems) Taqman qRT-PCR mixture and run on an ABI 7900 HT Real Time PCR system. For data analysis, the gene expression profile of each sample was first determined based on a control gene, Hprt1, using ABI SDS2.1 software. The signal of each sample was normalized further with Actb, Gapdh, Hprt1, and Rpl27. The biomarkers of wound injury, inflammation and repair that were dynamically affected by Compound B on day 1 and day 3 compared to vehicle control are shown in Table 2. Calcimimetic Compound B affected inflammatory genes, and genes involved in remodeling and repair. Specifically, key inflammatory cytokines such as IL-1a and TNF that may promote cell death were affected by Compound B. Genes involved in inflammation and repair that were affected included: tryptase, TIMP-3, and MMP13. Genes involved in promoting cell survival included: VEGFa, TGFb1, eNOS, and PDGFRb. Immune cell related genes included: M-CSF, TLR-7 and CD3. Other relevant genes included: ITGA3 and PRG-1. […] Table 2 represents the fold increase of drug-induced quantitative change in the gene over vehicle as determined by PCR analysis (n=5 in each drug or vehicle treated cohort).

A short description of data set [2]: Plasma level of calcimimetic in cutaneous wound study. In kind it is in vivo, mouse. The following applies: Compound B 3 mg/kg daily, female balb/c mice, over the course of the study.

With `COc1cccc([C@@H](C)NCCCc2ccccc2Cl)c1` [Compound A, 3-(2-chlorophenyl)-N-((1R)-1-(3-(methyloxy)phenyl)ethyl)-1-propanamine], the “change in intracellular calcium following exposure to 100% N2” value in the data set with colonic crypts and with isolated ileal villi was “no increase in calcium” each time. Further, the “cellular uptake of Trypan Blue” value with ileal villi is reported as “prevented uptake of Trypan Blue”.

On to `COc1ccc(CNC(C)c2ccccc2)cc1-c1ccc(C(F)(F)F)cc1` (centres unmarked) [Compound B, N-((6-(methyloxy)-4′-(trifluoromethyl)-1,1′-biphenyl-3-yl)methyl)-1-phenylethanamine], for which the “serum total calcium level” value with serum total calcium lay within 7.21 to 7.9 mg/dL. In addition, in data set [1] (Day 1 post-injury), the “Fold Increase (C/V) CD3 RNA” value was determined as 2.90 fold, the “Fold Increase (C/V) IL-1a RNA” value is recorded as 1.78 fold, the “Fold Increase (C/V) ITGA3 RNA” value is recorded as 4.89 fold and the “Fold Increase (C/V) M-CSF RNA” value turned out to be 2.13 fold. Also, in data set [1] (Day 1 post-injury), the “Fold Increase (C/V) MMP13 RNA” value came out at 2.78 fold, the “Fold Increase (C/V) PDGFRb(CD140) RNA” value is listed as 0.67 fold, the “Fold Increase (C/V) PRG-1 RNA” value is given as 3.03 fold and the “Fold Increase (C/V) TGFB1 RNA” value turned out to be 4.17 fold. Further, in data set [1] (Day 1 post-injury), the “Fold Increase (C/V) TIMP-3 RNA” value was 4.48 fold, the “Fold Increase (C/V) TLR-7 RNA” value turned out to be 2.20 fold, the “Fold Increase (C/V) TNFR(p75) RNA” value turned out to be 1.62 fold and the “Fold Increase (C/V) TNFalpha RNA” value came out at 1.26 fold. Besides, in data set [1] (Day 1 post-injury), the “Fold Increase (C/V) Tryptase b2 (MCP-6) RNA” value came to 1.02 fold, the “Fold Increase (C/V) VEGFa RNA” value turned out to be 1.53 fold and the “Fold Increase (C/V) eNOS RNA” value came out at 5.41 fold. In data set [1] (Day 3 post-injury), the “Fold Increase (C/V) CD3 RNA” value is reported as 0.88 fold, the “Fold Increase (C/V) IL-1a RNA” value is recorded as 3.44 fold, the “Fold Increase (C/V) ITGA3 RNA” value amounted to 1.78 fold and the “Fold Increase (C/V) M-CSF RNA” value is listed as 2.13 fold. Further, in data set [1] (Day 3 post-injury), the “Fold Increase (C/V) MMP13 RNA” value is 1.90 fold, the “Fold Increase (C/V) PDGFRb(CD140) RNA” value amounted to 1.42 fold, the “Fold Increase (C/V) PRG-1 RNA” value came to 4.12 fold and the “Fold Increase (C/V) TGFB1 RNA” value is recorded as 0.92 fold. For the same molecule, in data set [1] (Day 3 post-injury), the “Fold Increase (C/V) TIMP-3 RNA” value is 1.62 fold, the “Fold Increase (C/V) TLR-7 RNA” value turned out to be 2.39 fold, the “Fold Increase (C/V) TNFR(p75) RNA” value came out at 1.62 fold and the “Fold Increase (C/V) TNFalpha RNA” value amounted to 3.83 fold. In data set [1] (Day 3 post-injury), the “Fold Increase (C/V) Tryptase b2 (MCP-6) RNA” value worked out at 0.95 fold, the “Fold Increase (C/V) VEGFa RNA” value came to 0.61 fold and the “Fold Increase (C/V) eNOS RNA” value is 0.46 fold. Further, the average plasma level in data set [2] was 20 to 36 ng/mL.
